Source: patent US12344597B2, “Alkoxy-substituted pyridinyl derivatives as LPA1 receptor antagonists and their use in the treatment of fibrosis” (IDORSIA PHARMACEUTICALS LTD, priority 2018, dated 2025)
pIC50: −log10 of the molar value.

Target: human LPA1 receptor (Homo sapiens (Human), UniProt Q92633)
Experiment: Beta-arrestin recruitment assay to determine IC50 values for human LPAR1
Type: cell-based
Settings: antagonist mode, Tango EDG2-bla U2OS cells, LPA 18:1 500 nM final
Excerpt: Beta-Arrestin Recruitment Assay to Determine IC50 Values for Human LPAR1
The Tango™ EDG2-bla U2OS cells are obtained from Invitrogen. These cells contain the human LPA1 receptor cDNA linked to a TEV protease site and a Gal4-VP16 transcription factor integrated into the Tango™ GPCR-bla U2OS parental cell line. This parental cell line stably expresses a beta-arrestin/TEV protease fusion protein and the beta-lactamase (bla) reporter gene under the control of a UAS response element. Upon LPA (agonist) binding, LPA1 receptor gets activated, leading to arrestin-protease recruitment and proteolytic release of the transcription factor: The transcription factor then regulates transcription of a beta-lactamase reporter construct, which is measured upon addition of the live-cell substrate.
10′000 Tango™ EDG2-bla U2OS cells are seeded in a 384-well black with clear bottom plate in 30 μl Freestyle 293 Expression Medium (Invitrogen) and incubated for 20 h at 37° C., 5% CO2. […] IC50 is the concentration of antagonist inhibiting 50% of the maximal response.

human LPA1 receptor, sequence (Q92633 whole entry): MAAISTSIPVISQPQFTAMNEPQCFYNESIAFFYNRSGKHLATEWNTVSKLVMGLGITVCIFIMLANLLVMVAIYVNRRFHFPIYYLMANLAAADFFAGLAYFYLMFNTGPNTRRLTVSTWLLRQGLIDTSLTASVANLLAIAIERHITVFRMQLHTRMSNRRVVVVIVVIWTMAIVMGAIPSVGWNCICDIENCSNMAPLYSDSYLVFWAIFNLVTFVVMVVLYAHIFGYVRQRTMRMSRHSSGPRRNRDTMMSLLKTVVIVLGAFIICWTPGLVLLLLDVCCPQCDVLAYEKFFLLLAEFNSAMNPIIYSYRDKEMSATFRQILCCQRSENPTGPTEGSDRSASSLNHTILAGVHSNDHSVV

| Structure (SMILES) | pIC50 |
| --- | --- |
| Cc1ccc(NC(=O)C2(c3ccccc3C(C)C)CN(CC(=O)O)C2)c(OC(F)F)n1 [Ex 11-12, 2-(3-((2-(difluoromethoxy)-6-methylpyridin-3-yl)carbamoyl)-3-(2-isopropylphenyl)azetidin-1-yl)acetic acid] | 7.66 |
| CCOC(=O)c1c[nH]nc1CN1CC(C(=O)Nc2ccc(C)nc2OC(F)F)(c2ccccc2C(C)C)C1 [Ex 11-39, ethyl 3-((3-((2-(difluoromethoxy)-6-methylpyridin-3-yl)carbamoyl)-3-(2-isopropylphenyl)azetidin-1-yl)methyl)-1H-pyrazole-4-carboxylate] | 8.00 |
| Cc1ccc(NC(=O)C2(c3ccccc3C(C)C)CN(C(=O)CN(C)CC(=O)O)C2)c(OC(F)F)n1 [Ex 12-142, N-(2-(3-((2-(difluoromethoxy)-6-methylpyridin-3-yl)carbamoyl)-3-(2-isopropylphenyl)azetidin-1-yl)-2-oxoethyl)-N-methylglycine] | 7.74 |
| Cc1ccc(NC(=O)C2(c3ccccc3C(C)C)CN(c3ccncc3F)C2)c(OC(F)F)n1 [Ex 18-19, N-(2-(difluoromethoxy)-6-methylpyridin-3-yl)-1-(3-fluoropyridin-4-yl)-3-(2-isopropylphenyl)azetidine-3-carboxamide] | 8.70 |
| CCOC(=O)C(F)(F)CC(=O)N1CC(C(=O)Nc2ccc(C)nc2OC(F)F)(c2ccccc2C(C)C)C1 [Ex 12-111, ethyl 4-(3-((2-(difluoromethoxy)-6-methylpyridin-3-yl)carbamoyl)-3-(2-isopropylphenyl)azetidin-1-yl)-2,2-difluoro-4-oxobutanoate] | 7.74 |
| Cc1ccc(NC(=O)C2(c3ccccc3C(C)C)CN(S(=O)(=O)CCC(=O)O)C2)c(OC(F)F)n1 [Ex 13-5, 3-((3-((2-(difluoromethoxy)-6-methylpyridin-3-yl)carbamoyl)-3-(2-isopropylphenyl)azetidin-1-yl)sulfonyl)propanoic acid] | 8.40 |
| Cc1ccc(NC(=O)C2(c3ccccc3C(C)C)CN(C(=O)COCCOCC(=O)OCc3ccccc3)C2)c(OC(F)F)n1 [Ex 12-106, benzyl 2-(2-(2-(3-((2-(difluoromethoxy)-6-methylpyridin-3-yl)carbamoyl)-3-(2-isopropylphenyl)azetidin-1-yl)-2-oxoethoxy)ethoxy)acetate] | 7.23 |
| Cc1ccc(NC(=O)C2(c3ccccc3C(C)C)CCN(C(=O)Cn3nccn3)CC2)c(OC(F)F)n1 [Ex 12-22, 1-(2-(2H-1,2,3-triazol-2-yl)acetyl)-N-(2-(difluoromethoxy)-6-methylpyridin-3-yl)-4-(2-isopropylphenyl)piperidine-4-carboxamide] | 8.15 |
| CCOC(=O)C1(C(=O)N2CC(C(=O)Nc3ccc(C)nc3OC(F)F)(c3ccccc3C(C)C)C2)CNC1 [Ex 12-113, ethyl 3-(3-((2-(difluoromethoxy)-6-methylpyridin-3-yl)carbamoyl)-3-(2-isopropylphenyl)azetidine-1-carbonyl)azetidine-3-carboxylate] | 7.28 |
| Cc1ccc(C(C)C)c(C2(C(=O)Nc3ccc(C)nc3OC(F)F)CNC2)c1 [Ex 34, N-(2-(difluoromethoxy)-6-methylpyridin-3-yl)-3-(2-isopropyl-5-methylphenyl)azetidine-3-carboxamide] | 6.85 |
| COc1nc(Cl)ccc1NC(=O)C1(c2ccccc2C(C)C)CN(C(=O)CCC(=O)O)C1 [Ex 12-70, 4-(3-((6-chloro-2-methoxypyridin-3-yl)carbamoyl)-3-(2-isopropylphenyl)azetidin-1-yl)-4-oxobutanoic acid] | 7.22 |
| Cc1ccc(NC(=O)C2(c3ccccc3C(C)C)CN(S(=O)(=O)NCCF)C2)c(OC(F)F)n1 [Ex 15-4, N-(2-(difluoromethoxy)-6-methylpyridin-3-yl)-1-(N-(2-fluoroethyl)sulfamoyl)-3-(2-isopropylphenyl)azetidine-3-carboxamide] | 7.82 |
| Cc1cnc(NC(=O)C2(c3ccccc3C(C)C)CN(C(=O)CC(C)(C)C(=O)O)C2)c(OC(F)F)c1 [Ex 79-6, 4-(3-((3-(difluoromethoxy)-5-methylpyridin-2-yl)carbamoyl)-3-(2-isopropylphenyl)azetidin-1-yl)-2,2-dimethyl-4-oxobutanoic acid] | 6.70 |
| CC(C)c1ccccc1C1(C(=O)Nc2cccnc2OC(F)F)CN(S(=O)(=O)CCC(=O)O)C1 [Ex 13-10, 3-((3-((2-(difluoromethoxy)pyridin-3-yl)carbamoyl)-3-(2-isopropylphenyl)azetidin-1-yl)sulfonyl)propanoic acid] | 7.70 |
| Cc1ccc(NC(=O)C2(c3ccccc3C(C)C)CN(C(=O)[C@H](CO)NC(=O)OC(C)(C)C)C2)c(OC(F)F)n1 [Ex 12-39, tert-butyl (S)-(1-(3-((2-(difluoromethoxy)-6-methylpyridin-3-yl)carbamoyl)-3-(2-isopropylphenyl)azetidin-1-yl)-3-hydroxy-1-oxopropan-2-yl)carbamate] | 6.32 |
| Cc1ccc(NC(=O)C2(c3ccccc3C(C)C)CN(Cc3cnn(C)c3)C2)c(OC(F)F)n1 [Ex 11-23, N-(2-(difluoromethoxy)-6-methylpyridin-3-yl)-3-(2-isopropylphenyl)-1-((1-methyl-1H-pyrazol-4-yl)methyl)azetidine-3-carboxamide] | 6.11 |
| COC(=O)CCC(=O)N1CC(C(=O)Nc2ccc(C)nc2OC)(c2ccccc2C(C)C)C1 [Ex 12-61, Methyl 4-(3-(2-isopropylphenyl)-3-((2-methoxy-6-methylpyridin-3-yl)carbamoyl)azetidin-1-yl)-4-oxobutanoate] | 6.56 |
| Cc1ccc(NC(=O)C2(c3ccccc3C(C)C)CN(C(=O)NC(C)(C)C(=O)O)C2)c(OC(F)F)n1 [Ex 17-13, 2-(3-((2-(difluoromethoxy)-6-methylpyridin-3-yl)carbamoyl)-3-(2-isopropylphenyl)azetidine-1-carboxamido)-2-methylpropanoic acid] | 7.60 |
| Cc1ccc(NC(=O)C2(c3ccccc3C(C)C)CCN(C(N)=O)CC2)c(OC(F)F)n1 [Ex 17-20, N4-(2-(difluoromethoxy)-6-methylpyridin-3-yl)-4-(2-isopropylphenyl)piperidine-1,4-dicarboxamide] | 7.96 |
| Cc1ccc(NC(=O)C2(c3ccccc3C(C)C)CCN(C(=O)OC(C)(C)C)CC2)c(OC(F)F)n1 [Ex 4-1, tert-butyl 4-((2-(difluoromethoxy)-6-methylpyridin-3-yl)carbamoyl)-4-(2-isopropylphenyl)piperidine-1-carboxylate] | 7.72 |
| Cc1cnc(NC(=O)C2(c3ccccc3C(C)C)CN(C3=NC(=O)CO3)C2)c(OC(F)F)c1 [Ex 84, N-(3-(difluoromethoxy)-5-methylpyridin-2-yl)-3-(2-isopropylphenyl)-1-(4-oxo-4,5-dihydrooxazol-2-yl)azetidine-3-carboxamide] | 6.51 |
| C=C(CC(=O)OC)C(=O)N1CC(C(=O)Nc2ccc(C)nc2OC(F)F)(c2ccccc2C(C)C)C1 [Ex 12-92, methyl 3-(3-((2-(difluoromethoxy)-6-methylpyridin-3-yl)carbamoyl)-3-(2-isopropylphenyl)azetidine-1-carbonyl)but-3-enoate] | 6.96 |
| Cc1ccc(NC(=O)C2(c3ccccc3C(C)C)CN(C(=O)CCOCC(=O)OCc3ccccc3)C2)c(OC(F)F)n1 [Ex 12-109, benzyl 2-(3-(3-((2-(difluoromethoxy)-6-methylpyridin-3-yl)carbamoyl)-3-(2-isopropylphenyl)azetidin-1-yl)-3-oxopropoxy)acetate] | 7.70 |
| Cc1ccc(NC(=O)C2(c3ncccc3C(C)C)CN(c3nc(C)ccc3F)C2)c(OC(F)F)n1 [Ex 65, N-(2-(difluoromethoxy)-6-methylpyridin-3-yl)-1-(3-fluoro-6-methylpyridin-2-yl)-3-(3-isopropylpyridin-2-yl)azetidine-3-carboxamide] | 7.43 |
| Cc1ccc(NC(=O)C2(c3ccccc3C(C)C)CN(C(=O)N[C@@H](C)C(=O)O)C2)c(OC(F)F)n1 [Ex 17-9, (3-((2-(difluoromethoxy)-6-methylpyridin-3-yl)carbamoyl)-3-(2-isopropylphenyl)azetidine-1-carbonyl)-L-alanine] | 7.32 |
| Cc1ccc(NC(=O)C2(c3ccccc3C(C)C)CN(CCNC(=O)CO)C2)c(OC(F)F)n1 [Ex 11-87, N-(2-(difluoromethoxy)-6-methylpyridin-3-yl)-1-(2-(2-hydroxyacetamido)ethyl)-3-(2-isopropylphenyl)azetidine-3-carboxamide] | 7.59 |
| COC(=O)CCCCS(=O)(=O)N1CC(C(=O)Nc2ccc(C)nc2OC(F)F)(c2ccccc2C(C)C)C1 [Ex 13-18, methyl 5-((3-((2-(difluoromethoxy)-6-methylpyridin-3-yl)carbamoyl)-3-(2-isopropylphenyl)azetidin-1-yl)sulfonyl)pentanoate] | 7.14 |
| CC(C)c1ccccc1C1(C(=O)Nc2cccnc2OC(F)F)CN(S(N)(=O)=O)C1 [Ex 15-6, N-(2-(difluoromethoxy)pyridin-3-yl)-3-(2-isopropylphenyl)-1-sulfamoylazetidine-3-carboxamide] | 8.00 |
| CC(=O)NS(=O)(=O)N(C)CC(=O)N1CC(C(=O)Nc2ccc(C)nc2OC(F)F)(c2ccccc2C(C)C)C1 [Ex 16-5, 1-(N-(N-acetylsulfamoyl)-N-methylglycyl)-N-(2-(difluoromethoxy)-6-methylpyridin-3-yl)-3-(2-isopropylphenyl)azetidine-3-carboxamide] | 7.33 |
| COc1ccc(NC(=O)C2(c3ccccc3C(C)C)CN(S(N)(=O)=O)C2)c(OC)n1 [Ex 15-7, N-(2,6-dimethoxypyridin-3-yl)-3-(2-isopropylphenyl)-1-sulfamoylazetidine-3-carboxamide] | 8.40 |
